Experimental data published in patent EP2140864A2 (H. Lundbeck A/S, priority 2001, dated 2002).
Read-outs that look alike come from different tables or passages of the source.

What was measured:
human GAL2 receptor = target: T1, human GAL2 receptor (Homo sapiens, UniProt O43603); experiment: Radioligand binding at cloned human GAL2 receptor; conditions: read-out: Ki GalR2
T1 construct: expressed in transfected cells
T1 sequence (O43603 1-387): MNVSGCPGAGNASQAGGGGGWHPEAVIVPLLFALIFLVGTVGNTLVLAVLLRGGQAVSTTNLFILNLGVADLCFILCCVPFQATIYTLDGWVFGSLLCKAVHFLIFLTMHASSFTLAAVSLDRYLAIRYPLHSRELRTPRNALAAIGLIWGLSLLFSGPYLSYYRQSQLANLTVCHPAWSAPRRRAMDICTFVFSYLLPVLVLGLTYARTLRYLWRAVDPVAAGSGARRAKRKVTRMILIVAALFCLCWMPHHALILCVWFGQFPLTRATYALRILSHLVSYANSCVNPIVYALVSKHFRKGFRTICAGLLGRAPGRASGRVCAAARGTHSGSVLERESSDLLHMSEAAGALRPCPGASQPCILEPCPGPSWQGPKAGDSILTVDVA
Procedure: The binding properties of the pyrimidines of the present invention were evaluated at the cloned human galanin receptors, GAL1, GAL2, and GAL3, using protocols described herein.
The binding properties of the indolones of the present invention were evaluated at the cloned human galanin receptors, GAL1, GAL2, and GAL3, using protocols described herein.
(§1) LM(tk-) cells were stably transfected with the human GAL1 or GAL3 receptor. CHO cells were stably transfected with the human GAL2 receptor.
(§2) cDNAs for the human and rat GAL1, and human and rat GAL3 receptors were transfected with a G-418 resistant gene into the mouse fibroblast LM(tk-) cell line by a calcium phosphate transfection method (Cullen, 1987). Stably transfected cells were selected with G-418. Human and rat GAL2 receptors were similarly transfected into CHO cells.
(§3) Membranes were harvested from stably transfected LM(tk-) cells. Adherent cells were washed twice in ice-cold phosphate buffered saline (138 mM NaCl, 8.1 mM Na2HPO4, 2.5 mM KCl, 1.2 mM KH2PO4, 0.9 mM CaCl2, 0.5 mM MgCl2, pH 7.4) and lysed by sonication in ice-cold sonication buffer (20 mM Tris-HCl, 5 mM EDTA, pH 7.7). Large particles and debris were cleared by low speed centrifugation (200 x g, 5 min, 4°C). Membranes were collected from the supernatant fraction by centrifugation (32,000 x g, 18 min, 4°C), washed with ice-cold hypotonic buffer, and collected again by centrifugation (32,000 x g, 18 min, 4°C). The final membrane pellet was resuspended by sonication into a small volume of ice-cold binding buffer (-1 ml for every 5 plates: 10 mM NaCl, 20 mM HEPES, 0.22 mM KH2PO4, 1.26 mM CaCl2, 0.81 mM MgSO4, pH 7.4). Protein concentration was measured by the Bradford method (Bradford, 1976) using Bio-Rad Reagent, with bovine serum albumin as a standard. Membranes were held on ice for up to one hour and used fresh, or flash frozen and stored in liquid nitrogen. Membranes were prepared similarly from CHO cells.
(§4) Galanin Recentors: Binding assays were performed according to the following published methods: human GAL3 (PCT International Publication No. WO 98/15570), human GAL1 (PCT International Publication No. WO 95/2260), human GAL2 (PCT International Publication No. WO 97/26853).
(§5) Binding data were analyzed using nonlinear regression and statistical techniques available in the GraphPAD Prism package (San Diego, CA). Enzymatic assay data were derived from a standard curve of reference compound data.

human GAL3 receptor = target: T2, human GAL3 receptor (Homo sapiens, UniProt O60755); experiment: Radioligand binding at cloned human GAL3 receptor; conditions: cloned human receptor, read-out: Ki GalR3
T2 construct: expressed in transfected cells
T2 sequence (O60755 1-368): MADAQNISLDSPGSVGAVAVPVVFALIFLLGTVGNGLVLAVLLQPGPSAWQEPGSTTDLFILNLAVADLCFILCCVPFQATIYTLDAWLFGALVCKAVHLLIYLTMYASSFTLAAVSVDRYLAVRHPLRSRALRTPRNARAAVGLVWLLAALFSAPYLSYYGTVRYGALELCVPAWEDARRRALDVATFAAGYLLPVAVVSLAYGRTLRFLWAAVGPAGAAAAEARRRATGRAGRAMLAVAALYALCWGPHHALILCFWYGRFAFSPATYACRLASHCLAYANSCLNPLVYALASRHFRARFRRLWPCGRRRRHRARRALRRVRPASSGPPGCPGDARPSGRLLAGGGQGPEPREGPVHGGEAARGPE
Outline: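 Membranes from LM(tk-) cells stably expressing human GAL3, prepared in binding buffer (HEPES-based, pH 7.4), used for radioligand binding. Solvent at final assay concentration: 3% DMSO for indolones, 1% ethanol/0.09% pluronic F-127 for pyrimidines. Binding data analysed by nonlinear regression.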

human GAL1 receptor = target: T3, human GAL1 receptor (Homo sapiens, UniProt P47211); experiment: Radioligand binding at cloned human GAL1 receptor; conditions: read-out: Ki GalR1
T3 construct: expressed in transfected cells
T3 sequence (P47211 1-349): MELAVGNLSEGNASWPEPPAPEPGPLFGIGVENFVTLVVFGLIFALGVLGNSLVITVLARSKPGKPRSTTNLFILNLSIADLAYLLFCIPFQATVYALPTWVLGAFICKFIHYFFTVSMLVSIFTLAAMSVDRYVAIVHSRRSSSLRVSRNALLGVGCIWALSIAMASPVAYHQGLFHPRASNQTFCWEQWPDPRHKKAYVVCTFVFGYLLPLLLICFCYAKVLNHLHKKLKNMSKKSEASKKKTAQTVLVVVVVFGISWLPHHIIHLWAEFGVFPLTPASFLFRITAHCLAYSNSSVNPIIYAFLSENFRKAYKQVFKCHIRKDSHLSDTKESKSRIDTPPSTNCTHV
Procedure: The binding properties of the pyrimidines of the present invention were evaluated at the cloned human galanin receptors, GAL1, GAL2, and GAL3, using protocols described herein. […]
as §1, §2, §3, §4, §5

Ki (human GAL2 receptor; indolones) | Ki (human GAL3 receptor; indolones) | Ki (human GAL1 receptor; indolones) | Structure (SMILES) | Ki (human GAL2 receptor; pyrimidines) | Ki (human GAL3 receptor; pyrimidines) | Ki (human GAL1 receptor; pyrimidines)
> 10000 nM | 429 nM | > 10000 nM | COc1ccc(N=C2C(=O)N(c3ccccc3)c3ccccc32)cc1 [Example 102, 3-[(4-METHOXYPHENYL)IMINO]-1-PHENYL-1,3-DIHYDRO-2H-INDOL-2-ONE] | – | – | –
– | – | – | Cc1ccc(Nc2cc(N(C)C)nc(N3CCN(c4ncccc4C(F)(F)F)CC3)n2)cc1 [Example 88] | 355 nM | 39 nM | 2190 nM
– | – | – | Cc1ccc(Nc2cc(N3CCCCC3)nc(N(C)C(C)Cc3c[nH]c4ccccc34)n2)cc1 (stereo not drawn) [Example 21] | 1100 nM | 49 nM | 4790 nM
– | – | – | CN(C)c1cc(NC2CCC(C(C)(C)C)CC2)nc(Nc2ccccc2)n1 (stereo not drawn) [Example 68] | 2150 nM | 164 nM | > 5000 nM
– | – | – | Cc1ccc(Nc2cc(N3CCCCC3)nc(N3CCCC3)n2)cc1 [Example 38] | 516 nM | 320 nM | 2900 nM
– | – | – | Cc1ccc(Nc2cc(N(C)C)nc(N3CCOC(c4ccccc4)C3)n2)cc1 (stereo not drawn) [Example 83] | > 5000 nM | 160 nM | > 5000 nM
– | – | – | Cc1ccc(Nc2cc(N3CCCCC3)nc(N3CCN(c4cccc(C(F)(F)F)c4)CC3)n2)cc1 [Example 29] | 359 nM | 46 nM | 716 nM
– | – | – | Cc1ccc(Nc2cc(N3CCCCC3)nc(N3CCO[C@@H](c4ccccc4)[C@H]3C)n2)cc1 [Example 48] | 4230 nM | 120 nM | > 5000 nM
> 10000 nM | 126 nM | > 10000 nM | CC(C)N1C(=O)C(=Nc2ccc(Br)cc2)c2ccccc21 [Example 107, 3-[(4-BROMOPHENYL)IMINO]-1-ISOPROPYL-1,3-DIHYDRO-2H-INDOL-2-ONE] | – | – | –
– | – | – | COCCN(c1nc(Nc2ccc(C)cc2)cc(N2CCCCC2)n1)C1CCCCC1 [Example 2] | 562 nM | 26 nM | 2820 nM
– | – | – | CN(C)c1cc(NC2CC3CCC2C3)nc(Nc2ccccc2)n1 (stereo not drawn) [Example 69] | > 5000 nM | 417 nM | > 5000 nM
– | – | – | Cc1ccc(Nc2cc(N3CCCCC3)nc(N3CCOC(c4ccccc4)C3)n2)cc1 (stereo not drawn) [Example 47] | 3010 nM | 115 nM | > 5000 nM
– | – | – | Cc1ccc(Nc2cc(N3CCCCC3)nc(N3CCOCC3c3ccccc3)n2)cc1 (stereo not drawn) [Example 46] | > 5000 nM | 577 nM | > 5000 nM
> 10000 nM | 97 nM | > 10000 nM | C=CCN1C(=O)C(=Nc2ccc(Cl)c(Cl)c2)c2ccccc21 [Example 105, 1-ALLYL-3-[(3,4-DICHLOROPHENYL)IMINO]-1,3-DIHYDRO-2H-INDOL-2-ONE] | – | – | –
– | – | – | CN(C)c1cc(NC2CC3CCC2(C)C3(C)C)nc(Nc2ccccc2)n1 (stereo not drawn) [Example 70] | 944 nM | 476 nM | > 5000 nM
> 10000 nM | 305 nM | > 10000 nM | CCOc1ccc(N=C2C(=O)N(c3ccccc3)c3ccccc32)cc1 [Example 101, 3-[(4-ETHOXYPHENYL)IMINO]-1-PHENYL-1,3-DIHYDRO-2H-INDOL-2-ONE] | – | – | –
– | – | – | Cc1ccc(Nc2cc(N(C)C)nc(NCCc3c[nH]c4ccccc34)n2)cc1 [Example 76] | 1660 nM | 392 nM | 3800 nM
– | – | – | COCC1CCCCN1c1cc(Nc2ccc(C)cc2)nc(N2CCN(c3ncccc3C(F)(F)F)CC2)n1 (stereo not drawn) [Example 90] | 2460 nM | 105 nM | > 5000 nM
> 10000 nM | 62 nM | > 10000 nM | C=CCN1C(=O)C(=Nc2cc(Cl)cc(Cl)c2)c2ccccc21 [Example 106, 1-ALLYL-3-[(3,5-DICHLOROPHENYL)IMINO]-1,3-DIHYDRO-2H-INDOL-2-ONE] | – | – | –
– | – | – | Cc1cc(Nc2cc(N(C)C)nc(Nc3ccccc3)n2)ccc1Cl [Example 61] | > 5000 nM | 753 nM | > 5000 nM
– | – | – | CN(C)c1cc(Nc2ccc(Cl)cc2)nc(Nc2ccccc2)n1 [Example 58] | > 5000 nM | 783 nM | > 5000 nM
– | – | – | CN(CCc1c[nH]c2ccccc12)c1nc(Nc2ccc3ccccc3c2)cc(N2CCCCC2)n1 [Example 13] | 1410 nM | 81 nM | 2070 nM
